Results on 19 compounds are retold here after patent US12264134B2 (Merck Sharp & Dohme LLC, priority 2018, dated 2025).

Test [1] concerns the target T1, IDO1 (Homo sapiens, UniProt P14902). Nature of the test: IDO1 Cellular Assay in HeLa Cells Stimulated with IFNγ. Conditions: read-out: HeLa Cell Potency, IC50. The format is cell-based.
Test [2] has as its target T1, IDO1. Put plainly: IDO1 Human Whole blood Assay. In kind it is cell-based. The arrangement: Human whole blood was drawn in sodium heparin coated tubes from healthy internal donors; from tissue; host or cells: human whole blood from healthy donors, stimulated with LPS and IFNγ. The conditions noted are these: LPS and IFNγ stimulated, 18 h, read-out: Human Whole Blood Potency, IC50. In outline: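 LC/MS/MS of kynurenine, normalized to spiked isotope-labeled standard (3 μM final), served as the readout. Beforehand, fresh human blood with compound (15 min preincubation) was stimulated overnight (18 h, 37 °C) with 100 ng/mL LPS/IFNγ. IC50 was obtained by four-parameter curve fitting.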

SMILES strings stand for the structures.

T1 sequence (P14902 whole entry): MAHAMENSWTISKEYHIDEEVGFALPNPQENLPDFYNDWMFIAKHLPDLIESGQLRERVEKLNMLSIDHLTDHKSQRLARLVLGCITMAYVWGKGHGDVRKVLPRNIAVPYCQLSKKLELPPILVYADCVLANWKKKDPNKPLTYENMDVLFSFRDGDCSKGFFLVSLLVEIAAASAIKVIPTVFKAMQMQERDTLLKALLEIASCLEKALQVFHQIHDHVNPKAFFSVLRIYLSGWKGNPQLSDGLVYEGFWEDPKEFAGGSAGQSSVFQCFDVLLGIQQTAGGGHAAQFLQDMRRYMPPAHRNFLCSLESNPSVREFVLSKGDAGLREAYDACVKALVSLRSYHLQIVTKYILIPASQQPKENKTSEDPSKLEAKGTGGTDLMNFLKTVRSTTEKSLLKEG

Regarding `Cc1cccc(N2CCN(C(=O)Cn3nc(C(=O)N4CC[C@@H](O)[C@@H](C)C4)c4c3C[C@H]3C[C@@H]43)CC2)c1C` [Example 281, 1-[4-(2,3-dimethylphenyl)piperazin-1-yl]-2-{(3bR,4aR)-3-[(3S,4R)-4-hydroxy-3-methylpiperidine-1-carbonyl]-3b,4,4a,5-tetrahydro-1H-cyclopropa[3,4]cyclopenta[1,2-c]pyrazol-1-yl}ethan-1-one], the IC50 was 0.00097 µM at IDO1 [1] and 0.294 µM on IDO1 [2].

In the case of `Cc1cccc(N2CCN(C(=O)Cn3nc(C(=O)N4C[C@@H](C)O[C@@H](C)C4)c4c3C[C@H]3C[C@@H]43)CC2)c1C` [Example 283, 2-{(3bR,4aR)-3-[(2R,6S)-2,6-dimethylmorpholine-4-carbonyl]-3b,4,4a,5-tetrahydro-1H-cyclopropa[3,4]cyclopenta[1,2-c]pyrazol-1-yl}-1-[4-(2,3-dimethylphenyl)piperazine-1-yl]ethan-1-one], the IC50 at IDO1 [1] turned out to be 0.00113 µM; on IDO1 [2], 0.163 µM.

For the compound `Cc1cccc(N2CCN(C(=O)Cn3nc(C(=O)N4CC[C@@H](O)[C@H](C)C4)c4c3C[C@H]3C[C@@H]43)CC2)c1C` [Example 284, 1-[4-(2,3-dimethylphenyl)piperazin-1-yl]-2-{(3bR,4aR)-3-[(3R,4R)-4-hydroxy-3-methylpiperidine-1-carbonyl]-3b,4,4a,5-tetrahydro-1H-cyclopropa[3,4]cyclopenta[1,2-c]pyrazol-1-yl}ethan-1-one], the half-inhibitory concentration (IC50) on IDO1 [1] came out at 0.00114 µM; on IDO1 [2], 0.403 µM.

Take `Cc1cccc(N2CCN(C(=O)Cn3nc(C(=O)N4CCN(C(=O)CO)CC4)c4c3C[C@H]3C[C@@H]43)CC2)c1C` [Example 285, 1-[4-(2,3-dimethylphenyl)piperazin-1-yl]-2-{(3bR,4aR)-3-[4-(hydroxyacetyl)piperazine-1-carbonyl]-3b,4,4a,5-tetrahydro-1H-cyclopropa[3,4]cyclopenta[1,2-c]pyrazol-1-yl}ethan-1-one]: the concentration for half-maximal inhibition (IC50) at IDO1 [1] was found to be 0.00146 µM; at IDO1 [2], 0.058 µM.

In the case of `Cc1cccc(N2CCN(C(=O)Cn3nc(C(=O)N4CCC(F)(CO)CC4)c4c3C[C@H]3C[C@@H]43)CC2)c1C` [Example 286, 1-[4-(2,3-dimethylphenyl)piperazin-1-yl]-2-{(3bR,4aR)-3-[4-fluoro-4-(hydroxymethyl)piperidine-1-carbonyl]-3b,4,4a,5-tetrahydro-1H-cyclopropa[3,4]cyclopenta[1,2-c]pyrazol-1-yl}ethan-1-one], the half-inhibitory concentration (IC50) on IDO1 [1] is 0.00152 µM; on IDO1 [2], 0.044 µM.

`Cc1cccc(N2CCN(C(=O)Cn3nc(C(=O)N4CC[C@@H](O)[C@@H](F)C4)c4c3C[C@H]3C[C@@H]43)CC2)c1C` [Example 288, 1-[4-(2,3-dimethylphenyl)piperazin-1-yl]-2-{(3bR,4aR)-3-[(3S,4R)-3-fluoro-4-hydroxypiperidine-1-carbonyl]-3b,4,4a,5-tetrahydro-1H-cyclopropa[3,4]cyclopenta[1,2-c]pyrazol-1-yl}ethan-1-one]: the 50% inhibitory concentration (IC50) at IDO1 [1] amounted to 0.00171 µM; at IDO1 [2], 0.1 µM.

On to `Cc1cccc(N2CCN(C(=O)Cn3nc(C(=O)N4CC[C@H](O)[C@H](F)C4)c4c3C[C@H]3C[C@@H]43)CC2)c1C` [Example 289, 1-[4-(2,3-dimethylphenyl)piperazin-1-yl]-2-{(3bR,4aR)-3-[(3R,4S)-3-fluoro-4-hydroxypiperidine-1-carbonyl]-3b,4,4a,5-tetrahydro-1H-cyclopropa[3,4]cyclopenta[1,2-c]pyrazol-1-yl}ethan-1-one], for which the IC50 at IDO1 [1] worked out at 0.00195 µM; at IDO1 [2], 0.18 µM.

With `Cc1cccc(N2CCN(C(=O)Cn3nc(C(=O)N4CC[C@@H](O)C[C@@H]4C)c4c3C[C@H]3C[C@@H]43)CC2)c1C` [Example 290, 1-[4-(2,3-dimethylphenyl)piperazin-1-yl]-2-{(3bR,4aR)-3-[(2S,4R)-4-hydroxy-2-methylpiperidine-1-carbonyl]-3b,4,4a,5-tetrahydro-1H-cyclopropa[3,4]cyclopenta[1,2-c]pyrazol-1-yl}ethan-1-one], the IC50 at IDO1 [1] was found to be 0.00203 µM; at IDO1 [2], 0.771 µM.

Regarding `Cc1cccc(N2CCN(C(=O)Cn3nc(C(=O)N4CC[C@H](O)[C@@H](F)C4)c4c3C[C@H]3C[C@@H]43)CC2)c1C` [Example 291, 1-[4-(2,3-dimethylphenyl)piperazin-1-yl]-2-{(3bR,4aR)-3-[(3S,4S)-3-fluoro-4-hydroxypiperidine-1-carbonyl]-3b,4,4a,5-tetrahydro-1H-cyclopropa[3,4]cyclopenta[1,2-c]pyrazol-1-yl}ethan-1-one], the IC50 came out at 0.00279 µM on IDO1 [1] and 0.212 µM on IDO1 [2].

With `Cc1cccc(N2CCN(C(=O)Cn3nc(C(=O)N4CCC(F)(CO)CC4)c4c3CCC4)CC2)c1C` [Example 293, 1-[4-(2,3-dimethylphenyl)piperazin-1-yl]-2-{3-[4-fluoro-4-(hydroxymethyl)piperidine-1-carbonyl]-5,6-dihydrocyclopenta[c]pyrazol-1(4H)-yl}ethan-1-one], the half-inhibitory concentration (IC50) is 0.00546 µM at IDO1 [1] and 0.178 µM on IDO1 [2].

As to `Cc1cccc(N2CCN(C(=O)Cn3nc(C(=O)N4C[C@@H](C)O[C@@H](C)C4)c4c3[C@H]3C[C@H]3C4)CC2)c1C` [Example 294, 2-{(4aS,5aS)-3-[(2R,6S)-2,6-dimethylmorpholine-4-carbonyl]-4,4a,5,5a-tetahydro-1H-cyclopropa[4,5]cyclopenta[1,2-c]pyrazol-1-yl}-1-[4-(2,3-dimethylphenyl)piperazin-1-yl]ethan-1-one], the IC50 on IDO1 [1] was 0.00559 µM; on IDO1 [2], 1.45 µM.

On to `Cc1cccc(N2CCN(C(=O)Cn3nc(C(=O)N4C[C@@H](C)O[C@@H](C)C4)c4c3[C@@H]3C[C@@H]3C4)CC2)c1C` [Example 296, 2-{(4aR,5aR)-3-[(2R,6S)-2,6-dimethylmorpholine-4-carbonyl]-4,4a,5,5a-tetrahydro-1H-cyclopropa[4,5]cyclopenta[1,2-c]pyrazol-1-yl}-1-[4-(2,3-dimethylphenyl)piperazin-1-yl]ethan-1-one], for which the values for the concentration for half-maximal inhibition (IC50) at IDO1 [1] and on IDO1 [2] were 0.00799 µM and 0.543 µM, respectively.

As to `Cc1cccc(N2CCN(C(=O)Cn3nc(C(=O)N4CCC5(CO)CC4C5)c4c3CCC4)CC2)c1C` [Example 297, 1-[4-(2,3-dimethylphenyl)piperazin-1-yl]-2-{3-[5-(hydroxymethyl)-2-azabicyclo[3.1.1]heptane-2-carbonyl]-5,6-dihydrocyclopenta[c]pyrazol-1(4H)-yl}ethan-1-one], the IC50 on IDO1 [1] was 0.0113 µM; on IDO1 [2], 1.22 µM.

For `Cc1c(Cl)cccc1N1CCN(C(=O)Cn2nc(C(=O)N3CCC(F)(CN)CC3)c3c2C[C@H]2C[C@@H]32)C2(CC2)C1` [Example 314, 2-{(3bR,4aR)-3-[4-(aminomethyl)-4-fluoropiperidine-1-carbonyl]-3b,4,4a,5-tetrahydro-1H-cyclopropa[3,4]cyclopenta[1,2-c]pyrazol-1-yl}-1-[7-(3-chloro-2-methylphenyl)-4,7-diazaspiro[2.5]octan-4-yl]ethan-1-one], the figures for the IC50 on IDO1 [1] and on IDO1 [2] were 0.00488 µM and 0.846 µM, respectively.

Regarding `Cc1c(Cl)cccc1N1CCN(C(=O)Cn2nc(C(=O)N3CC[C@H](N)[C@@H](F)C3)c3c2C[C@H]2C[C@@H]32)C2(CC2)C1` [Example 315, 2-{(3bR,4aR)-3-[(3S,4S)-4-amino-3-fluoropiperidine-1-carbonyl]-3b,4,4a,5-tetrahydro-1H-cyclopropa[3,4]cyclopenta[1,2-c]pyrazol-1-yl}-1-[7-(3-chloro-2-methylphenyl)-4,7-diazaspiro[2.5]octan-4-yl]ethan-1-one], the concentration for half-maximal inhibition (IC50) at IDO1 [1] came to 0.00321 µM; at IDO1 [2], 0.272 µM.

For the compound `Cc1c(F)ccc(N2CCN(C(=O)Cn3nc(C(=O)N4CC[C@H](O)[C@H](F)C4)c4c3C[C@H]3C[C@@H]43)C3(CC3)C2)c1C` [Example 317, 1-[7-(4-fluoro-2,3-dimethylphenyl)-4,7-diazaspiro[2.5]octan-4-yl]-2-{(3bR,4aR)-3-[(3R,4S)-3-fluoro-4-hydroxypiperidine-1-carbonyl]-3b,4,4a,5-tetrahydro-1H-cyclopropa[3,4]cyclopenta[1,2-c]pyrazol-1-yl}ethan-1-one], the IC50 at IDO1 [1] came to 0.00165 µM; on IDO1 [2], 0.205 µM.

With `Cc1c(F)ccc(N2CCN(C(=O)Cn3nc(C(=O)N4CCN(C(=O)CO)CC4)c4c3C[C@H]3C[C@@H]43)C3(CC3)C2)c1C` [Example 319, 1-[7-(4-fluoro-2,3-dimethylphenyl)-4,7-diazaspiro[2.5]octan-4-yl]-2-{(3bR,4aR)-3-[4-(hydroxyacetyl)piperazine-1-carbonyl]-3b,4,4a,5-tetrahydro-1H-cyclopropa[3,4]cyclopenta[1,2-c]pyrazol-1-yl}ethan-1-one], the IC50 on IDO1 [1] was 0.00131 µM; at IDO1 [2], 0.452 µM.

As to `CC(=O)NC1CCN(C(=O)c2nn(CC(=O)N3CCN(c4ccc(F)c(C)c4C)CC34CC4)c3c2[C@@H]2C[C@@H]2C3)CC1` [Example 320, N-{1-[(3bR,4aR)-1-{2-[7-(4-fluoro-2,3-dimethylphenyl)-4,7-diazaspiro[2.5]octan-4-yl]-2-oxoethyl}-3b,4,4a,5-tetrahydro-1H-cyclopropa[3,4]cyclopenta[1,2-c]pyrazole-3-carbonyl]piperidin-4-yl}acetamide], the values for the half-maximal inhibitory concentration (IC50) on IDO1 [1] and on IDO1 [2] were 0.00131 µM and 0.347 µM, respectively.

In the case of `Cc1c(F)ccc(N2CCN(C(=O)Cn3nc(C(=O)N4CCC(OCCO)CC4)c4c3C[C@H]3C[C@@H]43)C3(CC3)C2)c1C` [Example 321, 1-[7-(4-fluoro-2,3-dimethylphenyl)-4,7-diazaspiro[2.5]octan-4-yl]-2-{(3bR,4aR)-3-[4-(2-hydroxyethoxy)piperidine-1-carbonyl]-3b,4,4a,5-tetrahydro-1H-cyclopropa[3,4]cyclopenta[1,2-c]pyrazol-1-yl}ethan-1-one], the IC50 was found to be 0.00147 µM on IDO1 [1] and 0.508 µM at IDO1 [2].

By IC50 is commonly meant the point on the concentration scale where inhibition reaches its midpoint.
